Patent US12366579B2, “Sulfur-heterocycle exchange chemistry and uses thereof” (University of Virginia Patent Foundation, priority 2019, dated 2025)
pIC50: −log10 of the molar value. Entries after “also recorded” stand apart in the source; their conditions may differ.

Columns and labels:
[1] = molecular target: T1, recombinant GSTP1 lysates (Homo sapiens, UniProt P09211); test: GSTP1 biochemical substrate assay (GSH conjugation to BDNB)
T1 construct: FLAG (C); host or cells: HEK293T, transient transfection; soluble proteome used unpurified
Description: GSTP1 Biochemical Substrate Assay
Recombinant GSTP1-HEK293T soluble cell proteomes were diluted to 1 mg ml^−1 in assay buffer (100 mM NaH2PO4, pH 7.0). Samples were treated with inhibitor at indicated concentrations for 30 min at 37° C. GSH stock solution (250 mM in water) was diluted to 4 mM in assay buffer and 25 μl of diluted GSH solution was added to each sample. A substrate stock solution of 75 mM 1-bromo-2,4-dinitrobenzene […] in ethanol was diluted to 2 mM in assay buffer. Samples (25 μl) were aliquoted into a 96-well plate and spun briefly via centrifuge. Next, 50 μl of 2 mM BDNB was added to each well and the reaction was monitored in kinetic mode by measuring absorbance at 340 nm for 10 min on a BMG Labtech CLARIOstar plate reader (BMG Labtech, Cary, North Carolina, United States of America).

PLD3 (Y437) = molecular target: T2, PLD3 (Y437) (Homo sapiens, UniProt Q8IV08); test: Competitive chemical proteomics of SuTEx fragments vs HHS-482, PLD3 site; type: binding; settings: fragment 50 μM, 30 min, 37° C.
T2 construct: endogenous in cells; host or cells: DM93 melanoma cells, soluble proteome (lysate)
Description: (§1) Heavy and light proteomes (432 μl of each) were diluted to 2.3 mg ml^−1 in PBS and sample aliquots (432 μl) were treated with SuTEx fragment at the indicated concentrations (5 μl, 100× stock in DMSO), mixed gently and incubated for 30 min at 37° C. Samples were then treated with HHS-482 (5 μL, 5 mM stock in DMSO) for 30 min at 37° C. Probe-modified proteomes were conjugated to desthiobiotin-PEG3-azide followed by enrichment of probe-modified peptides for nano-electrospray ionization-LC-MS/MS analyses as previously described^57.
The chemical proteomic method for functional tyrosine profiling^72 was tailored to investigate AG/LG effects on SuTEx fragment reactivity in complex proteomes. In brief, isotopically light and heavy soluble proteomes from DM93 melanoma cells cultured by stable isotopic labeling by amino acids in cell culture (SILAC^80) media were used for quantitative liquid chromatography-mass spectrometry (LC-MS) studies. […] Proteomes were digested with trypsin protease, HHS-482-modified peptides enriched by avidin chromatography and analyzed by high-resolution LC-MS/MS and bioinformatics as described hereinabove.
To evaluate substituent effects on proteome activity, reactivity profiles of each respective SuTEx fragment were compared across >1500 total distinct HHS-482-modified tyrosine sites from >650 detected proteins. […]

[2] = HPLC assay for solution reactivity of sulfonyl triazole fragments with p-cresol; type: physicochemical; settings: HPLC assay, TMG base
Description: HPLC Assay for Profiling Solution Reactivity and Stability of Sulfonyl Triazole Fragments
The following reagents were prepared and stored on ice prior to use. 0.1 M solution of caffeine in acetonitrile, 1.0 M solution of n-butylamine, p-cresol, tetramethylguanidine […], 1 M HOAc in ACN and 10 mM solution of SuTEx fragment in DMF-ACN mixture (10:90, v/v). 500 μL of fragment solution was transferred to a dram vial on ice. To the mixture, 5.5 μL of TMG and 5.5 μL of p-cresol or n-butylamine was added and solutions were stirred on ice for 6 h. To monitor reactivity, 50 μL aliquots were removed at indicated time points and quenched with 10 μL of a 1:1 mixture of caffeine and HOAc. Samples were injected (1 μL) and analyzed by reverse-phase HPLC on a Shimadzu 1100 Series spectrometer (Shimadzu, Kyoto, Japan) with UV detection at 254 nm. Reaction progress was evaluated by monitoring consumption of starting material (SuTEx fragment) normalized to caffeine standard. Chromatographic separation was performed using a Phenomenex Kinetex C18 column (2.6 μm, 50×4.6 mm) (Phenomenex, Torrance, California, United States of America). Mobile phases A and B were composed of H2O+0.1% HOAc and ACN+0.1% HOAc, respectively. Samples were analyzed using the following analytical conditions: using a flow rate of 0.8 ml min^−1, the gradient was as follows: 0-0.5 min, 15% B; 0.5-6.5 min 85% B; 6.5-7 min 100% B: 7-8.5 min 100% B; 8.5-9 min 15% B; 9-9.8 min 15% B.

human GSTP1 (hGSTP1) = molecular target: T3, human GSTP1 (hGSTP1) (Homo sapiens, UniProt P09211); test: Gel-based competitive chemical proteomic screen with HHS-482, recombinant hGSTP1-HEK293T soluble proteomes; type: binding; settings: fragment 50 μM, 30 min, 37° C.
T3 construct: FLAG (C); host or cells: HEK293T, transient transfection; soluble proteome used unpurified
Description: Gel-Based Chemical Proteomic Assay
Cell pellets were lysed in PBS and fractionated (100,000×g, 45 min, 4° C.) to generate soluble and membrane fractions. Protein concentrations were determined using Bio-Rad DC protein assay (Bio-Rad Laboratories, Inc., Hercules, California, United States of America), and adjusted to 1 mgml^−1 in PBS. Proteome samples (49 μl aliquots) were treated with DMSO vehicle or indicated concentration of SuTEx fragment (1 μL, 50× stock in DMSO) for 30 min at 37° C. Samples were then treated with HHS-482 probe (1 μL, 2.5 mM stock in DMSO) for 30 min at 37° C. Probe labeled samples were conjugated to rhodamine-azide (1 μL, 1.25 mM stock; final concentration of 25 μM) by copper-catalyzed azide-alkyne cycloadditions (CuAAC) for 1 h at room temperature followed by SDS-PAGE and in-gel fluorescence scanning as previously described^57.

GSTP1 Y8 = molecular target: T4, GSTP1 Y8 (Homo sapiens, UniProt P09211); test: Quantitative chemical proteomics of live SILAC DM93 cells treated with SuTEx fragments; type: cell-based
T4 construct: endogenous in cells; host or cells: DM93 melanoma cells (SILAC)
Description: Live Cell Evaluation of Sulfonyl-Triazole Fragments
Cells grown to ˜90% confluency in 10 cm plates were treated with DMSO vehicle or SuTEx fragment (10 μl of 1,000× stock) in serum-free media for the indicated concentrations and times at 37° C. with 5% CO2. After treatment, cells were washed with cold PBS twice before collection and preparation for gel-based chemical proteomic evaluation as described above. For LC-MS studies, protein concentrations were normalized to 2.3 mg ml^−1 and 432 μl (for 1 mg final protein amount) were used for sample preparation as detailed below.
as §1
Next, SILAC DM93 cells were treated with JWB152 or JWB198 to determine whether these SuTEx fragments could ligand Y8 of endogenous GSTP1 in living systems (50 μM compound, 1.5 hr, 37° C.). Cells were pretreated with DMSO vehicle or SuTEx fragments followed by cells lysis, HHS-482 labeling of proteomes, and quantitative chemical proteomics.

DM93 soluble proteomes = test: Proteome-wide competitive chemical proteomics of SuTEx fragments vs HHS-482; type: binding, human; settings: fragment 50 μM, 30 min, 37° C.
Description: as §1
The chemical proteomic method for functional tyrosine profiling^72 was tailored to investigate AG/LG effects on SuTEx fragment reactivity in complex proteomes. In brief, isotopically light and heavy soluble proteomes from DM93 melanoma cells cultured by stable isotopic labeling by amino acids in cell culture (SILAC^80) media were used for quantitative liquid chromatography-mass spectrometry (LC-MS) studies. Light and heavy DM93 proteomes were treated with dimethyl sulfoxide (DMSO) vehicle or SuTEx fragment (50 μM, 30 min, 37° C.), respectively, followed by labeling with the tyrosine-reactive probe HHS-482 described hereinabove (50 μM, 30 min, 37° C.) and copper-catalyzed azide-alkyne cycloaddition (CuAAC) conjugation of a desthiobiotin-azide enrichment tag. Proteomes were digested with trypsin protease, HHS-482-modified peptides enriched by avidin chromatography and analyzed by high-resolution LC-MS/MS and bioinformatics as described hereinabove.
To evaluate substituent effects on proteome activity, reactivity profiles of each respective SuTEx fragment were compared across >1500 total distinct HHS-482-modified tyrosine sites from >650 detected proteins. Fragments were screened across independent biological replicates (n=2-3) and high-quality tyrosine site annotations were identified by detection in at least a single biological replicate from each fragment dataset, probe-specific enrichment (HHS-482 probe/DMSO SILAC ratio (SR)>5), and quality control confidence criteria of ≥300 Byonic score^31, […] protein false discovery rate (FDR), and ≤5 ppm mass accuracy in order to minimize the potential for false positives^72. SILAC ratios (SR) from competitive studies (Light-DMSO/Heavy-fragment) were used to identify fragment-competed tyrosine residues as sites showing >75% reduction in enrichment by HHS-482 compared with DMSO vehicle control (i.e. liganded tyrosines, SR>4). In total, 305 liganded tyrosines on 213 distinct proteins were identified, corresponding to ˜30% and ˜44% of total quantified tyrosines and proteins, respectively. […]

T1 sequence (P09211 whole entry): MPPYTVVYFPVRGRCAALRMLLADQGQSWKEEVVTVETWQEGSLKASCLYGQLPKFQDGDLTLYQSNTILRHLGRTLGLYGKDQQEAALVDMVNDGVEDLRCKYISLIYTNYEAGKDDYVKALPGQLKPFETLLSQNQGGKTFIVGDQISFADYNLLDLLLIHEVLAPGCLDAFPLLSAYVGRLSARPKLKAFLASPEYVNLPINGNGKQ
T4 sequence (P09211 whole entry, the tested form may be a part): as the sequence (P09211 whole entry) above
T3 sequence (P09211 whole entry, the tested form may be a part): as the sequence (P09211 whole entry) above
T2 sequence (Q8IV08 whole entry, the tested form may be a part): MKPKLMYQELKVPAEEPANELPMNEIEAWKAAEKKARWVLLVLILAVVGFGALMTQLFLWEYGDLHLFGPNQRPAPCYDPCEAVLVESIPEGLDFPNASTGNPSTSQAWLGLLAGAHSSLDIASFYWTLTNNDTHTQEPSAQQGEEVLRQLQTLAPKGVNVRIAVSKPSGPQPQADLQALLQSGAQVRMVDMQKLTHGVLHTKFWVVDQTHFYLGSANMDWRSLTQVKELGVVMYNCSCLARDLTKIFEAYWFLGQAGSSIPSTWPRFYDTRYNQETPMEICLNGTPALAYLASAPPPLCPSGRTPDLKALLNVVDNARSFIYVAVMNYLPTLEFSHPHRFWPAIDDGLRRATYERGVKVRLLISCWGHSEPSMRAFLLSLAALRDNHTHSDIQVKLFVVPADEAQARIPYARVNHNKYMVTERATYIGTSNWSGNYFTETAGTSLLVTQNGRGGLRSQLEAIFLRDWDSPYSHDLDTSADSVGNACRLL

SMILES | inhibitory activity against GSTP1 ([1]; negative control probes, highest concentration tested 100 μM) | SILAC ratio (SR) at tyrosine competed site PLD3 Y437 (PLD3 (Y437)) | solution reactivity with p-cresol [2] | pIC50 ([1]; inhibitor 30 min at 37° C., n=3, read-out: IC50, in vitro potency against GSTP1 by GSH substrate assay) | block of HHS-482 labeling of GSTP1 (human GSTP1 (hGSTP1)) | blockade of HHS-482 labeling of native GSTP1 Y8 in live cells (GSTP1 Y8; 50 μM compound, 1.5 hr, 37° C.) | SILAC ratio (SR) at other GSTP1 probe-modified sites (GSTP1 Y8; Y50, Y64, Y80, Y119, and Y199, 50 μM) | liganded tyrosine frequency (SR>4) (DM93 soluble proteomes)
O=S(=O)(C1CC1)n1cnc(-c2ccc(C(F)(F)F)cc2)n1 [JWB146, 1-(Cyclopropylsulfonyl)-3-(4-(trifluoromethyl)phenyl)-1H-1,2,4-triazole] | lack of activity; also recorded: did not show inhibitory activity | > 6 | largely unreactive | – | – | – | – | –
O=S(=O)(c1ccc2ccccc2c1)n1cnc(-c2ccncc2)n1 [JWB198, 4-(1-(Naphthalen-2-ylsulfonyl)-1H-1,2,4-triazol-3-yl)pyridine] | – | – | – | 4.80 | block HHS-482 labeling to levels comparable with Y8F mutant | ~70% | ~1 | 1.3%
